Experiment [1] relates to mice induced with metabolic dysfunction-associated steatohepatitis (MASH). Kind of experiment: Liver morphology, H&E histology and MAFLD activity score in MASH mice. It is filed as in vivo, C57BL/6N mice. Particulars: 25 mg/kg/day orally for 4 weeks. Here is the method: (§1) Five-week-old wild-type male C57BL/6N mice were purchased from Orient Bio Co., Ltd. They were allowed to acclimate to the laboratory environment for one week. Mice weighing 18-20 g on average were used in the experiment. To ensure ethical and scientific validity and efficient management of animal experiments, the experiment was conducted with the approval of the Institutional Review Board (IACUC-A-202205-1472-01) of Severance Hospital, Yonsei University College of Medicine.
(§2) The mice were divided into a normal group (NCD) and a high-fat diet group (HFD). The normal group (NCD) was fed a normal chow diet (NCD, Teklad Global 18% protein rodent diet), and the high-fat diet group (HFD) was fed a high-fat diet (HFD, D12492) in which fat accounted for 60% of the total calories, for 8 weeks. […]
After preparing the 7 groups, the animals were sacrificed using carbon dioxide and the liver tissues were extracted. […] Twenty randomly selected microscopic fields were photographed and analyzed using a Nikon bright-field optical microscope (Nikon TE-2000U).
After preparing the 7 groups, the animals were sacrificed using carbon dioxide and the liver tissues were extracted. After staining the liver tissues with H&E, scores were calculated using the MAFLD activity scoring system. […]

Experiment [2] has as its system F4/80, CD11 b, α-SMA, collagen I, desmin in liver tissue. Kind of experiment: Liver immunohistochemistry of inflammatory (F4/80, CD11 b) and fibrosis markers (α-SMA, collagen I, desmin) in MASH mice. The experiment is classed as in vivo, C57BL/6N mice. Particulars: 25 mg/kg/day orally for 4 weeks; vs MASH group (vehicle). Here is the method: as §1, §2
The sections treated with the primary antibodies were washed with PBS and incubated with biotinylated anti-mouse (1:400; Dako) or anti-rabbit (1:400; Dako) secondary antibodies for 1 hour at room temperature. […] After the staining, images were taken and analyzed using a bright-field microscope (Nikon TE-2000U).
Through these experiments, the anti-inflammatory effect of the indoline derivatives of Examples 1 to 4 were analyzed in an animal model of nonalcoholic fatty liver disease. […]

For experiment [3], the target named is CXXC5-Dvl interaction (PDZ domain of Dvl (dishevelled) protein / PTD-DBM-FITC). Kind of experiment: CXXC5-Dvl binding inhibition, competition of PTD-DBM-FITC on plate-bound Dvl PDZ domain. Conditions: purified Dvl PDZ domain 5 μg/mL, 10 μM PTD-DBM-FITC, compounds 0.001-100 μM, FITC fluorescence. Here is the method:
5 μg/mL of the purified PDZ domain ofDvl (dishevelled) protein was attached to the bottom of a 96-well black immunoplate and left in a chamber at 4° C. for one day. The next day, each well was washed with PBS and 10 μM PTD-DBM-FITC was added. After incubation at room temperature for 3 hours, each well was washed with PBS. Each well was treated with the indoline derivatives at various concentrations (100, 10, 1, 0.1, 0.01, and 0.001 μM) in 100 μL of PBS. After washing with a buffer, fluorescence was measured by FITC using a microplate reader. A competition binding curve showing the degree of CXXC5-Dvl PPI inhibition was constructed using the GraphPad Prism software, and the IC50 value was calculated. […] CK090), and the intermediate compound 5-cyanoindirubin as controls.

Regarding `N#Cc1ccc2c(c1)/C(=C1/Nc3ccccc3C1=O)C(=O)N2` [5-cyanoindirubin], in experiment [1], the “steatosis / lipid droplets in liver tissue, H&E staining” value is listed as “steatosis was also confirmed clearly”. For the same compound, the “fatty liver, morphological observation of liver tissue” value in experiment [1] (vs MASH group (vehicle)) is listed as “fatty liver was not alleviated significantly”. Moreover, in experiment [2], the “collagen production and α-SMA expression in liver (fibrosis markers)” value is reported as “did not show any significant difference from the MASH group (vehicle)”; the “expression of inflammatory markers F4/80 and CD11 b in liver” value is reported as “no significant difference was observed from the MASH group (vehicle)”. Moreover, the IC50 in experiment [3] is 11.1 µM.
